Experimental data from patent US20250296922A1, “POLYSUBSTITUTED PYRROLIDINE DERIVATIVE, PREPARATION METHOD THEREFOR AND USE THEREOF” (SHANGHAI WENNAI THERAPEUTICS CO LTD, priority 2023, published 2025).

Tests used:
[1] = Stability of the compound in liver microsomes (mouse); type: in vitro ADME, CD-1 mouse; details: 1 μM compound, 0.5 mg protein/mL; for half-life at 1 μM: CD-1, mouse, liver microsomes, read-out: Mouse liver microsomes T½; for half-life at 1 μM / Mouse liver microsomes T½: 37° C.
Method: 2.1.1. working solution: 5 μL of test or control compound stock solution (10 mM DMSO solution) was diluted with 495 μL of acetonitrile (ACN) to obtain an intermediate stock solution (100 μM, 99% ACN).
2.2.2 Preparation procedure: An appropriate amount of NADPH powder was weighed and diluted with 10 mM MgCl2 buffer (working solution concentration: 10 mM; final reaction system concentration: 1 mM).
2.3.2 Preparation procedure: The appropriate concentration of liver microsomal working solution was prepared in 100 mM potassium phosphate buffer;
Acetonitrile (ACN) solution at 4° C. containing 200 ng/mL of Tolbutamide and 200 ng/ml of labetalol as internal standards 2.5. Operation steps:
2.5.2. Diluting liver microsomes with 100 mM potassium phosphate buffer to a concentration of 0.56 mg/mL.
2.5.3. Transferring 445 μL of liver microsomal working solution (0.56 mg/mL) to pre-heated incubation plates T60 and NCF60, and then pre-heating the incubation plates T60 and NCF60 for 10 minutes at 37° C. with shaking. Transferring 54 μL of liver microsomes to each well of the blank plate, adding 6 μL of NAPDH coenzyme solution to the blank plate, and finally transferring 180 μL of termination solution to the blank plate.
2.5.4 Adding 5 μL of compound working solution (100 μM) to the incubation plates T60 and NCF60 containing liver microsomes and mixing three times.
2.5.5. Adding 50 μL of buffer to the NCF60 plate and mixing three times, starting the timer and incubating at 37° C. for 60 min with the plate shaking.
2.5.6. Adding 180 μL of quenching solution and 6 μL of NAPDH coenzyme working solution sequentially to quenching plate TO, making sure that the plate was cold to prevent volatilization of the incubation solution.
2.5.7. For plate T60, mixing well three times and immediately transferring 54 μL of mixing solution (0-min time point) to quenching plate TO, then adding 44 μL of NAPDH coenzyme working solution to incubation plate T60. Starting the timer:
2.5.8. At the 5, 15, 30, 45 and 60 minute time points, adding 180 μL of quenching solution to the quenching plate and transferring 60 μL of reaction solution from the T60 plate to the quenching plate at each time point.
2.5.9. For NCF60 plates, mixing well and transferring 60 μL of reaction solution from the NCF60 incubating solution to a quenching plate containing 180 μL of quenching solution at 60th minute.
2.5.10. All plates were mixed on a shaker for 10 min and then centrifuged at 4000 rpm at 4° C. for 20 min.
2.5.11. Transferring 80 μL of supernatant to 240 μL of HPLC water and mixing on a
2.6.1. Calculating t1/2 and Clint (mic) values based on first-order elimination kinetics: […]

CYP2C9 = CYP2C9 (Homo sapiens (Human), UniProt P11712); experiment: Human liver microsomal CYP inhibition test, CYP2C9; type: in vitro ADME; details: human liver microsomes 0.2 mg/mL; substrate Diclofenac
CYP2C9, sequence (P11712 whole entry): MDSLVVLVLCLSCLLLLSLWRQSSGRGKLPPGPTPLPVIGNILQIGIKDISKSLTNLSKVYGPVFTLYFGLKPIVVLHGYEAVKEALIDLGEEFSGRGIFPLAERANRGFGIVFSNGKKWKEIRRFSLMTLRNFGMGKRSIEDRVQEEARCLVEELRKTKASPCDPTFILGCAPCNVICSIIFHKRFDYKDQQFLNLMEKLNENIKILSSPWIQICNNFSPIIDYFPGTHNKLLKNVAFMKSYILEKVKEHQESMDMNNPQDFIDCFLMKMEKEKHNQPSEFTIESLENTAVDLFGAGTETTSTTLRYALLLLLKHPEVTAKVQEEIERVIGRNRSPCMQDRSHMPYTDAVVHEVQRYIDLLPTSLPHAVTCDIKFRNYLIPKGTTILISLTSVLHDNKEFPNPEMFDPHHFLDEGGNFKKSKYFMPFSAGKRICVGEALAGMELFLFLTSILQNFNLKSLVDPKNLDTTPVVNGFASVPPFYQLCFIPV
Method: (§1) 3.1 Buffer solutions: (1) potassium phosphate 100 mM; (2) magnesium chloride, 33 mM;
(§2) 3.2.3 Reservoir for compounds to be tested: Dissolving the compounds to be tested in DMSO to form a 10 mM DMSO solution.
3.4.1 Preparation of human liver microsomal working solution (1.27×) (final concentration: 0.2 mg/mL)
(§3) 3.5.3 Adding 20 μL of substrate solution to the appropriate wells and 20 μL of potassium phosphate buffer to the blank wells;
(§4) 3.5.4 Adding 2 μL of different concentrations of target compounds (final concentrations from 0.05 μM to 50 μM, 7 concentrations in total) or standard inhibitors to each well, with 2 μL of methanol solution in the non-inhibitor and blank wells;
(§5) 3.5.5 Adding 1.012 mL of liver microsomes to 78.988 mL of potassium phosphate buffer, then adding 158 μL of liver microsomes solution to all wells; preheating the well plate for 10 minutes in a 37° C. water bath;
(§6) 3.5.6 Weighing 129.1 mg NADPH (purchased from SyncoZymes Co. Ltd.) and adding to 15.0 mL of 33 Mm MgCl2 solution to give a 10 mM concentration, adding 20 μL to each well;
(§7) 3.5.7 Mixing and incubating the well plate in a 37° C. water bath for 10 minutes, then adding 400 μL of cold termination solution at the appropriate time point;
(§8) 3.5.8 Centrifuging the sample at 4000 rpm for 20 minutes to precipitate the protein. Transferring 200 μL of supernatant to 100 μL of HPLC water and shaking for 10 minutes. The samples were analyzed by LC/MS/MS;
(§9) Percentage inhibition was plotted for blank control and different concentrations of target compounds by using XL fitting or SigmaPlot and the data were analyzed by non-linear regression. IC50 values were determined by using either 3-parameter or 4-parameter logistic equations.

CYP2C19 = CYP2C19 (Homo sapiens (Human), UniProt P33261); experiment: Human liver microsomal CYP inhibition test, CYP2C19; type: in vitro ADME; details: human liver microsomes 0.2 mg/mL; substrate S-mephenytoin
CYP2C19, sequence (P33261 whole entry): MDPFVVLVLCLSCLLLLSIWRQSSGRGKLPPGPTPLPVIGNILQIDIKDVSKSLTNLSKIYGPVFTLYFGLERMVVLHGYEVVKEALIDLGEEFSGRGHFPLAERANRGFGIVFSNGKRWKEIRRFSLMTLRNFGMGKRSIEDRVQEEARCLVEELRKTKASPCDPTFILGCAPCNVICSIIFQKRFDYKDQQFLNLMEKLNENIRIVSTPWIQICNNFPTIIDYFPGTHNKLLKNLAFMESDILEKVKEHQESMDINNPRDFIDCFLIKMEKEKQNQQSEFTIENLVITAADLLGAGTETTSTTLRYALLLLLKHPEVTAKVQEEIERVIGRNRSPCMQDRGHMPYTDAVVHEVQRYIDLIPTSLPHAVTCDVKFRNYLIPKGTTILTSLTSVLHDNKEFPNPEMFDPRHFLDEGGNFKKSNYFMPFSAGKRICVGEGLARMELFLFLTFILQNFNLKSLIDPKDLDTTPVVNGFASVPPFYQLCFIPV
Method: as §1, §2, §3, §4, §5, §6, §7, §8, §9

| Molecule | half-life at 1 μM [1] [h] | Mouse liver microsomes Residual (T = 60 min) [1] [%] | IC50 (CYP2C9) [µM] | IC50 (CYP2C19) [µM] | Mouse liver microsomes T½ [1] [h] |
| --- | --- | --- | --- | --- | --- |
| COc1c([C@H]2[C@H](C(=O)Nc3ccc[n+]([O-])c3)N[C@@](C)(C(F)(F)F)[C@H]2C)ccc(F)c1F [Compound 7, 3-((2R,3S,4S,5R)-3-(3,4-difluoro-2-methoxyphenyl)-4,5-dimethyl-5-(trifluoromethyl)pyrrolidine-2-carboxamido)pyridine 1-oxide] | > 2.42 | 75.4 | > 50 | 2.13 |  |
| COc1c([C@H]2[C@H](C(=O)Nc3ccnc(C(N)=O)c3)O[C@@](C)(C(F)(F)F)[C@H]2C)ccc(F)c1F [VX-548, reference compound] | 1.2 | 56.3 | 17.4 | 3.74 |  |
| 4-((2R,3S,4S,5R)-3-(3,4-difluoro-2-(methoxy-d3)phenyl)-4,5-dimethyl-5-(trifluoromethyl) pyrrolidine-2-carboxamido)pyridinamide [Compound 11] |  | 52.9 | 41.4 |  | 1.24 |
| COc1c([C@H]2[C@H](C(=O)Nc3cccc(S(N)(=O)=O)c3)N[C@@](C)(C(F)(F)F)[C@H]2C)ccc(F)c1F [Compound 8, (2R,3S,4S,5R)-3-(3,4-difluoro-2-methoxyphenyl)-4,5-dimethyl-aza-(3-aminosulfonylphenyl)-5-(trifluoromethyl) pyrrolidine-2-carboxamide] |  | 62.9 | 22.9 | 29 | 1.51 |
